Experimental data: ChEMBL document CHEMBL1201862, “PubChem BioAssay data set” (2004)
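Five concentrations, 48 hours, 96-well plates. GI50 = concentration required for 50% inhibition of growth.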 Calls of active or inactive are those of the source. Rule as the data show it: active = GI50 up to about 1.1 µM and inactive = higher.

Assays:
Assay in all cases: NCI anticancer screen, dose series, 48 h
UO-31 = test system: UO-31
SR = test system: SR
HOP-92 = test system: HOP-92
A549 = test system: A549
SN12C = test system: SN12C
SF-268 = test system: SF-268
UACC-62 = test system: UACC-62
MDA-N = test system: MDA-N
KM12 = test system: KM12
NCI-H226 = test system: NCI-H226
MDA-MB-435 = test system: MDA-MB-435
Malme-3M = test system: Malme-3M
OVCAR-4 = test system: OVCAR-4
SK-MEL-28 = test system: SK-MEL-28
CAKI-1 = test system: CAKI-1
DU-145 = test system: DU-145
OVCAR-3 = test system: OVCAR-3
SNB-75 = test system: SNB-75
CCRF-CEM = test system: CCRF-CEM
MCF7 = test system: MCF7

Measured: GI50

O=c1[nH]c2nc(S)nc(S)c2[nH]1
inactive: UO-31 > 100 µM | SR > 100 µM | HOP-92 > 100 µM | A549 > 100 µM | SN12C > 100 µM | SF-268 > 100 µM | UACC-62 > 100 µM | MDA-N > 100 µM | KM12 > 100 µM | NCI-H226 > 100 µM | MDA-MB-435 > 100 µM | Malme-3M > 100 µM | OVCAR-4 > 100 µM | SK-MEL-28 > 100 µM | CAKI-1 > 100 µM

Oc1ccccc1/C=N/N1C(=S)N(C23CC4CC(CC(C4)C2)C3)C(=N\c2ccccc2)/C1=N/c1ccccc1
inactive: UO-31 > 100 µM | SR 43.3 µM | HOP-92 29.7 µM | A549 > 100 µM | SN12C > 100 µM | SF-268 > 100 µM | DU-145 > 100 µM | UACC-62 > 100 µM | MDA-N > 100 µM | KM12 > 100 µM | NCI-H226 > 100 µM | MDA-MB-435 > 100 µM | Malme-3M > 100 µM | SK-MEL-28 > 100 µM | OVCAR-3 > 100 µM | CAKI-1 > 100 µM

CCOC(=O)C(=[N+]=[N-])C(=O)C[N+]12CCN(CC1)CC2
inactive: UO-31 > 100 µM | SR > 100 µM | HOP-92 > 100 µM | A549 > 100 µM | SN12C > 100 µM | SF-268 > 100 µM | DU-145 > 100 µM | UACC-62 > 100 µM | SNB-75 > 100 µM | CCRF-CEM > 100 µM | MDA-N > 100 µM | KM12 > 100 µM | NCI-H226 > 100 µM | MDA-MB-435 > 100 µM | Malme-3M > 100 µM | OVCAR-4 > 100 µM | SK-MEL-28 > 100 µM | OVCAR-3 > 100 µM | CAKI-1 > 100 µM

CC1(C)C(C#N)C1C1=C(N2CCOCC2)[C@]2(C)C(OC(=O)c3ccccc3)CC[C@@H]2C1 (some centres undefined)
inactive: UO-31 > 100 µM | SR 61.5 µM | HOP-92 61.2 µM | A549 > 100 µM | SN12C > 100 µM | SF-268 > 100 µM | UACC-62 > 100 µM | SNB-75 20.5 µM | CCRF-CEM 31 µM | MDA-N > 100 µM | KM12 > 100 µM | NCI-H226 > 100 µM | MDA-MB-435 > 100 µM | Malme-3M > 100 µM | OVCAR-4 > 100 µM | MCF7 72.6 µM | SK-MEL-28 > 100 µM | OVCAR-3 > 100 µM | CAKI-1 > 100 µM

S=C1/C(=N/c2ccccc2)N(C2CCCCC2)/C(=N\C2CCCCC2)N1c1ccccc1
inactive: UO-31 > 100 µM | SR > 100 µM | HOP-92 > 100 µM | A549 60 µM | SN12C 47.8 µM | SF-268 > 100 µM | DU-145 > 100 µM | UACC-62 76.2 µM | SNB-75 > 100 µM | CCRF-CEM > 100 µM | MDA-N > 100 µM | KM12 42.7 µM | NCI-H226 > 100 µM | MDA-MB-435 > 100 µM | Malme-3M > 100 µM | OVCAR-4 > 100 µM | SK-MEL-28 > 100 µM | CAKI-1 > 100 µM

Cc1nc(C)c(C(=O)NNC(=O)Cc2ccccc2)cc1C(=O)NNC(=O)Cc1ccccc1
inactive: UO-31 > 100 µM | HOP-92 > 100 µM | A549 > 100 µM | SN12C > 100 µM | SF-268 > 100 µM | DU-145 > 100 µM | UACC-62 > 100 µM | SNB-75 94 µM | CCRF-CEM > 100 µM | MDA-N > 100 µM | KM12 > 100 µM | NCI-H226 > 100 µM | MDA-MB-435 > 100 µM | OVCAR-4 > 100 µM | MCF7 > 100 µM | OVCAR-3 > 100 µM | CAKI-1 > 100 µM

[N-]=[N+]=NC1(c2ccccc2)C(=O)c2cccc3c4ccccc4n(c23)C1=O (centres undefined)
inactive: UO-31 > 100 µM | A549 76.2 µM | SN12C > 100 µM | SF-268 > 100 µM | DU-145 > 100 µM | UACC-62 50 µM | SNB-75 > 100 µM | CCRF-CEM 64.3 µM | MDA-N 34.4 µM | KM12 53.1 µM | NCI-H226 > 100 µM | MDA-MB-435 27.9 µM | Malme-3M > 100 µM | OVCAR-4 > 100 µM | MCF7 54 µM | SK-MEL-28 > 100 µM | OVCAR-3 46.3 µM | CAKI-1 > 100 µM

NNC(=S)NCCNC(=S)NN
inactive: UO-31 > 100 µM | SR > 100 µM | A549 > 100 µM | SN12C > 100 µM | SF-268 > 100 µM | DU-145 > 100 µM | UACC-62 > 100 µM | SNB-75 > 100 µM | CCRF-CEM > 100 µM | MDA-N > 100 µM | KM12 > 100 µM | MDA-MB-435 > 100 µM | Malme-3M > 100 µM | OVCAR-4 > 100 µM | SK-MEL-28 > 100 µM | OVCAR-3 > 100 µM | CAKI-1 > 100 µM

Cc1cccc2nc3c(=O)[nH]c(=O)nc-3n(C)c12
inactive: A549 84.7 µM | SN12C > 100 µM | SF-268 50.4 µM | DU-145 > 100 µM | UACC-62 31.9 µM | SNB-75 > 100 µM | CCRF-CEM 28.6 µM | MDA-N 62.1 µM | KM12 31.9 µM | NCI-H226 > 100 µM | MDA-MB-435 17.6 µM | Malme-3M 21.3 µM | OVCAR-4 45.5 µM | MCF7 34.5 µM | SK-MEL-28 > 100 µM | OVCAR-3 28 µM | CAKI-1 > 100 µM

O=C1C(=O)N(C23CC4CC(CC(C4)C2)C3)C(=S)N1c1ccccc1
inactive: UO-31 > 100 µM | SR > 100 µM | HOP-92 30 µM | A549 65.5 µM | SN12C > 100 µM | SF-268 > 100 µM | DU-145 > 100 µM | UACC-62 > 100 µM | SNB-75 > 100 µM | CCRF-CEM 29 µM | MDA-N > 100 µM | KM12 > 100 µM | NCI-H226 60 µM | MDA-MB-435 > 100 µM | Malme-3M > 100 µM | OVCAR-4 > 100 µM | SK-MEL-28 > 100 µM | CAKI-1 > 100 µM

CC(C)OP(=O)(c1ccccc1)c1ccc2c(c1)OCCOCCOCCOCCO2 (centres undefined)
inactive: UO-31 > 100 µM | A549 > 100 µM | SN12C > 100 µM | SF-268 > 100 µM | DU-145 > 100 µM | UACC-62 > 100 µM | SNB-75 > 100 µM | CCRF-CEM > 100 µM | MDA-N > 100 µM | KM12 > 100 µM | NCI-H226 > 100 µM | MDA-MB-435 > 100 µM | Malme-3M > 100 µM | MCF7 > 100 µM | SK-MEL-28 > 100 µM
